# Assay results from article PMC10958225, “Therapeutic potential of orally applied KB-R7943 in streptozotocin-induced neuropathy in rats” (Heliyon, 2024).
# How the values were obtained:
# [1] = system: STZ-treated rats with neuropathy; experiment: Forced swim test (FST); format: in vivo, rat; conditions: 10 mg/kg p.o. once daily from day 28, test on day 41, 5-min test
# Experimental: (§1) On the day of diabetic state induction, rats were deprived of food for 6 h (from 8 a.m. to 2 p.m.). A single i.p. injection was applied with 55 mg/kg STZ in the ice-cold citrate buffer (0.1 M pH 4.4). The observed polydipsia, polyuria, reduced thriving with lower body weight, and poor coating appearance indirectly indicated the development of diabetes. On day 28, after 6 h of fasting, blood glucose was measured with an Xpress Statstrip Glucometer (Nova Biomedical Corporation, Waltham, MA, USA) from the tail vein. A cut-off value of blood glucose >13 mmol/l was adopted. […] Controls were once i.p. injected with ice-cold citrate buffer 0.1 M pH 4.4 only.
# (§2) Three animals per cage were housed for the experiment 2 (Fig. 3B). Rats were gently manipulated daily before undertaking the actual behavior tests. […] Body weight (BW), coat score (CS), CPT, R–S, and FT were evaluated on day 28th post-STZ, and after that, rats were distributed into the treatment groups as follows. • C-Veh – Controls, vehiculum treatment (n = 12) • NP-Veh – STZ-treated rats with neuropathy, vehiculum treatment (n = 12) • NP-KB-R7943 – 5 mg - STZ-treated rats, with neuropathy, KB-R7943 5 mg/kg treatment (n = 12) • NP-KB-R7943 – 10 mg – STZ-treated rats, with neuropathy, KB-R7943 10 mg/kg (n = 12) • NP-AMT – 10 mg - STZ-treated rats, with neuropathy, amitriptyline 10 mg/kg (n = 12). […]
# [2] = system: STZ-treated rats with neuropathy; experiment: Formalin test (0.5% formalin); format: in vivo, rat
# Experimental: as §1
# (§3) Three animals per cage were housed for the experiment 2 (Fig. 3B). Rats were gently manipulated daily before undertaking the actual behavior tests. One week after adaptation, the Randl-Stellito (R–S) test, cold plate test (CPT), and formalin tests (FT) were performed at baseline. After that, the diabetes model was made with 48 rats. Twelve animals served as controls. Body weight (BW), coat score (CS), CPT, R–S, and FT were evaluated on day 28th post-STZ, and after that, rats were distributed into the treatment groups as follows. • C-Veh – Controls, vehiculum treatment (n = 12) • NP-Veh – STZ-treated rats with neuropathy, vehiculum treatment (n = 12) • NP-KB-R7943 – 5 mg - STZ-treated rats, with neuropathy, KB-R7943 5 mg/kg treatment (n = 12) • NP-KB-R7943 – 10 mg – STZ-treated rats, with neuropathy, KB-R7943 10 mg/kg (n = 12) • NP-AMT – 10 mg - STZ-treated rats, with neuropathy, amitriptyline 10 mg/kg (n = 12).
# (§4) OraPlus was used as a vehiculum for gavage (16 gauge feeding tube 10 ml/kg) in all rats. KB-R7943 in two doses (5 or 10 mg/kg) or amitriptyline 10 mg/kg was applied once daily until day 49. Behavior tests were performed […] after the oral gavage of the corresponding day, in the afternoon, starting from 2 p.m. […] On day 41, an FST was performed, and at 2 p.m., rats were placed individually for 24 h to assess spontaneous physical activity. After that, on day 42, the same battery of the tests as on day 28 were reassessed.
# The formalin test was performed 1 h after the R–S test to decrease the interaction with the mechanical stimulus from the previous test. For the same reason, the left hind paws were injected. A needle (U-100 Insulin Syringe, Beckton and Dickinson, Dublin, Ireland) was used. A low-dose intraplantar injection of formalin 50 mcl 0.5% was done, and rats were placed in individual transparent cases for observation. Two independent observers measured the time spent licking or biting the injected paw, and the first (0–5 min) and the second post-injection phase (20–30 min) were reported in sec.
# [3] = system: STZ-treated rats with neuropathy; experiment: Coat state score; format: in vivo, rat; conditions: chronic p.o. treatment from day 28, day 42
# Experimental: as §1
# as §2, with “3B).” for “3B). Rats were gently manipulated daily before undertaking the actual behavior tests.”
# Coat state, water consumption, and body weight were evaluated weakly. […] Water consumption was measured per cage. […]
# [4] = system: STZ-treated rats with neuropathy; experiment: Cold plate test; format: in vivo, rat; conditions: 10 mg/kg p.o. once daily, end of the trial
# Experimental: as §1
# as §2, with “3B).” for “3B). Rats were gently manipulated daily before undertaking the actual behavior tests.”
# This test was used for allodynia testing. […] Two independent observers recorded the time-to-paw lifting. […]
# [5] = system: STZ-treated rats with neuropathy; experiment: Paw pressure (Randall-Selitto) test; format: in vivo, rat; conditions: 10 mg/kg p.o. once daily, vs. NPveh
# Experimental: as §1, §2
# [6] = system: STZ-treated rats with neuropathy; experiment: Mortality and adverse effects during chronic oral treatment; format: in vivo; conditions: p.o. once daily day 28 to 49
# Experimental: as §3
# as §4, with “After that, on day 42, the same battery of the tests as on day 28 were reassessed.” left out
# [7] = system: STZ-treated rats with neuropathy; experiment: 24-hour spontaneous physical activity; format: in vivo, rat; conditions: 10 mg/kg p.o. once daily from day 28, from day 41
# Experimental: as §1, §2
compound,measurement,setting,value
CN(C)CCC=C1c2ccccc2CCc2ccccc21 [amitriptyline],immobility time in FST,[1],137.50 ± 31.94 s
same,effect on formalin test first phase (0–5 min),"[2]; 10 mg/kg p.o. once daily, vs. NP-Veh",attenuated
same,effect on formalin test second phase (20–30 min),"[2]; amitriptyline 10 mg/kg, KB-R7943 5 and 10 mg/kg p.o. once daily, vs. NPveh, dose-dependent",attenuated
same,effect on coat score,[3],ameliorated
same,effect on cold allodynia (cold plate test),[4],demonstrated a reversal effect
same,effect on mechanical allodynia (R–S test),[5],partly reversed
same,mortality during treatment,[6],No one rat died
same,24-h spontaneous physical activity,[7],1678.33 ± 282.00 beam breaks
